Measurements from US12590309B2, “Reprogramming of lipid metabolism to inhibit T cell senescence and enhance tumor immunotherapy” (Saint Louis University, priority 2019, dated 2026).
Read-outs that look alike come from different tables or passages of the source.

How the values were obtained:
[1] = system: senescent T cells; experiment: Suppressive activity of senescent T cells, [3H]-thymidine proliferation assay; format: cell-based, human; settings: data not shown
Protocol: Functional proliferation assay. Proliferation assays were performed using a [^3H]-thymidine incorporation assay, as the inventors previously described (Liu et al., 2018; Ye et al., 2014; 2012; Peng et al., 2005; 2007). Naïve CD4+ T cells (1×10^5/well) purified from healthy donors were co-cultured with Treg-treated T cells at a ratio of 10:1 in 200 μl of T cell assay medium containing 2% human AB. After 56 hours of culture, [3H]-thymidine was added at a final concentration of 1 μCi/well, followed by an additional 16 hours of culture. The incorporation of [^3H]-thymidine was measured with a liquid scintillation counter.

[2] = system: senescent T cells; experiment: Inflammatory cytokine mRNA by real-time qPCR in responder/senescent T cells; format: cell-based, human
Protocol: (§1) Reverse-transcription quantitative PCR analysis. Total RNA was extracted from T cells using Trizol reagent (Invitrogen), and cDNA was transcribed using a SuperScript II RT kit (Invitrogen), both according to manufacturers' instructions. Expression levels of each gene were determined by reverse-transcription PCR using specific primers, and mRNA levels in each sample were normalized to the relative quantity of the housekeeping GAPDH or β-actin gene expression. All experiments were performed in triplicate.

[3] = system: B16F10 tumor; experiment: B16F10 melanoma, Pmel-1 T cell adoptive transfer therapy model in C57BL/6 mice; settings: Pmel-1 T cells pretreated with ATK 0.5 μM 2 hours; ATK 10 mg·kg-1/mouse i.p. day 1, 4, 7, 10
[4] = system: naïve CD4+ and CD8+ T cells co-cultured with nTreg cells; experiment: SA-β-gal staining, T cell senescence induced by Treg cells; format: cell-based, human; settings: for senescence induction in T cells co-cultured with nTreg cells, lipid supplement: naïve CD4+ T cells, lipids 5 μM or 10 μM, 3 days
Protocol: Senescence associated β-galactosidase staining. Senescence associated β-galactosidase (SA-β-gal) activity in senescent T cells was detected as the inventors previously described 23,32,33. Naive CD4+ or CD8+ T cells were labeled with CFSE (4.5 μM), and co-cultured with Treg cells at a ratio of 4:1 in anti-CD3-coated 24-well plates for 3 days. Co-cultured naïve T cells were then separated from co-cultures using FACS sorting gated on CFSE positive populations, and then stained with SA-β-Gal staining reagent. […] For some experiments, naïve T cells were pretreated with the following inhibitors and then co-cultured with Treg cells. SA-β-gal expression in the co-cultured naïve T cells was determined. These inhibitors include: ACAT inhibitor Avasimable (5 μM and 10 μM), lipase inhibitor orlistat (10 μM), and cPLA2α inhibitor MAFP (1 μM and 5 μM) (Cayman Chemical); ATM inhibitor KU55933 (10 μM, Tocris Bioscience); stat1 inhibitor MTA (5 μM), stat3 inhibitor S3I-201 (10 μM) (Sigma-Aldrich); MAPK inhibitors including U0126 (10 μM) and SB203580 (10 μM) (Calbiochemistry).
(§2) Lipid supplement assay. Lysophosphatidylcholine (LPC, 16:0 LPC, 16:0 aLPC, and 16:0 pLPC), Phosphatidylethanolamine (PE, 16:0 lyso PE) and Phosphatidylserine (PS, 16:0 lyso PS) were purchased from the Avanti Polar Lipids, INC. C2-Ceramide was purchased from Sigma. All the lipids were dissolved in chloroform, evaporated under a gentle stream of nitrogen and then immediately dissolved in an ethanol vehicle (0.1%). Naïve CD4+ T cells were first treated with or without the lipids (5 μM or 10 μM) for 1 hour and then co-cultured with Treg cells at a ratio of 4:1 in anti-CD3-coated (2 μg/ml) plates for 3 days. The treated naïve CD4+ T cells were then performed SA-β-gal and Oil red O staining.

[5] = system: naïve CD4+ and CD8+ T cells co-cultured with nTreg cells; experiment: Oil-Red O staining, LD formation in T cells co-cultured with Treg cells; format: cell-based, human
Protocol: as §2
(§3) Oil-Red O staining. The treated T cells were washed in PBS (pH 7.2), fixed with 4% formaldehyde for 30 minutes, and treated with 60% isopropanol for 2-5 minutes. Cells were further stained with freshly prepared Oil-Red O staining solution (Sigma-Aldrich) in isopropanol (60%) for 5 minutes, followed by quick rinse with isopropanol (60%). The stained cells were then washed with H2O thoroughly and lipid droplets in T cells were evaluated using a light microscope.

[6] = system: cPLA2α; experiment: cPLA2α, p21 and p53 expression in Treg-treated T cells (western blot, qPCR, flow cytometry); format: cell-based, human
Protocol: Flow cytometry analysis. The expression markers on T cells were determined by flow cytometry analysis after surface staining or intracellular staining with anti-human specific antibodies conjugated with PE or Alexa Flour488. The human antibodies included: anti-CD27, anti-CD28, anti-phospho-ERK (Thr202/Tyr204), anti-phospho-p38 (Thr180/Tyr182), anti-phospho-STAT1 (Tyr701), anti-phospho-STAT3 (Tyr705 or Ser727), anti-phospho-ATM, anti-phospho-H2AX, anti-phospho-CHK2, anti-phospho-53BP1, and anti-cPLA2α, which were purchased from BD Biosciences, Biolegend, or Cell Signaling Technology. For Bodipy 493/503 staining (Thermo Fisher Scientific), T cells were incubated with Bodipy 493/503 (1 μg/ml) at room temperature for 15 minutes. All stained cells were analyzed on a LSR II cytometer (BD Bioscience) and data analyzed with FlowJo software (Tree Star).
Western-blotting analysis. CFSE-labeled naïve CD4+ or CD8+ T cells were co-cultured with Treg or control T cells at a ratio of 4:1 in the anti-CD3 antibody-precoated plates (2 μg/ml) for 3 days. In some experiments, T cells were pretreated with the cPLA2α inhibitor MAFP (5 M) for 24 hours, and then co-cultured with Treg cells. Treated T cells were then sorted by FACS gating on CFSE positive T cells. Whole cell lysates of the purified CD4+ T cells were prepared for western blot analyses. Western blots were developed with the Chemiluminescent Substrate (KPL, Maryland). The rabbit polyclonal antibodies used in the western blot analyses are as following: anti-cPLA2α, anti-P53, anti-P21, and anti-GAPDH. All antibodies were purchased from the Cell Signaling Technology.
as §1

[7] = system: MAPK and STAT1/STAT3 signaling; experiment: Phosphorylation of p38, ERK, STAT1 and STAT3 by flow cytometry in Treg-treated CD4+ T cells; format: cell-based, human; settings: pretreated 24 hours (KU55933 10 μM; MAFP 5 μM), Treg co-culture 3 days
[8] = system: naïve CD8+ T cells co-cultured with nTreg cells; experiment: Lipidomics (ESI-MS/MS) of Treg-induced senescent T cells; format: cell-based, human
Protocol: Lipidomics analysis. Lipids from T cells were extracted by the method of Bligh and Dyer in the presence of internal standards including eicosanoic acid, 1-0-heptadecanoyl-LPC, dieicosanoyl-PC, ditetradecanoyl-PE, ditetradecanoyl-PS, N-heptadecanoyl-Cer, and cholesteryl heptadecanoate (Bligh and Dyer, 1959). Extracted lipids were resuspended in methanol/chloroform (2:1, by vol.) and analyzed by ESI-MS in the direct infusion mode at a flow rate of 3 μl/min using a Thermo Electron TSQ Quantrum Ultra® instrument. Samples were analyzed in both the positive and negative ion mode using a shotgun lipidomics approach (Han and Gross, 2005). For LPC, neutral loss (NL) scanning of 59.1 was monitored in the positive ion mode for sodiated molecular ions. NL scanning of 368.5 was performed for sodiated CE molecular species in the positive ion mode (Bowden et al., 2011). PE was derivatized to fMOC-PE species and monitored in negative ion mode using NL scanning of 222.2. Neutral loss scanning for Cer (NL 256.2), PC (NL50) and PS (NL 87) was performed in the negative ion mode (Han and Gross, 2005). Fatty acids were converted to pentafluorobenzyl esters and quantified using negative ion chemical ionization detection and gas chromatography (Quehenberger et al., 2010). Spectra were averaged over 3-5 min and processed utilizing Xcalibur® software (Thermo Electron). Individual molecular species were quantified by comparing the ion intensity of individual molecular species to that of the appropriate internal standards following corrections for type I and type II 13C isotope effects (Han and Gross, 2005). Additional corrections were made from response curves for CE molecular species (Bowden et al., 2011). Each sample was normalized to cell number, and values are expressed per million cells.

[9] = system: naïve T cells; experiment: Oil-Red O staining of naïve T cells cultured with the substance alone; format: cell-based, human
Protocol: as §3

[10] = system: naïve T cells; experiment: SA-β-gal staining of naïve T cells cultured with the substance alone; format: cell-based, human
Protocol: Senescence associated β-galactosidase staining. […] Naive CD4+ or CD8+ T cells were labeled with CFSE (4.5 μM), and co-cultured with Treg cells at a ratio of 4:1 in anti-CD3-coated 24-well plates for 3 days. Co-cultured naïve T cells were then separated from co-cultures using FACS sorting gated on CFSE positive populations, and then stained with SA-β-Gal staining reagent. For tumor-induced T cell senescence, anti-CD3 activated naïve CD4+ T cells or CD8+ T cells were co-cultured with or without tumor cells at ratio of 1:1 for 1 day and then separated and cultured for additional 3 days. For some experiments, naïve T cells were pretreated with the following inhibitors and then co-cultured with Treg cells. SA-β-gal expression in the co-cultured naïve T cells was determined. These inhibitors include: ACAT inhibitor Avasimable (5 μM and 10 μM), lipase inhibitor orlistat (10 μM), and cPLA2α inhibitor MAFP (1 μM and 5 μM) (Cayman Chemical); ATM inhibitor KU55933 (10 μM, Tocris Bioscience); stat1 inhibitor MTA (5 μM), stat3 inhibitor S3I-201 (10 μM) (Sigma-Aldrich); MAPK inhibitors including U0126 (10 μM) and SB203580 (10 μM) (Calbiochemistry).

[11] = naïve CD4+ and CD8+ T cells pretreated with inhibitor 24 hours, co-cultured with nTreg 4:1, anti-CD3, 3 days
[12] = naïve CD4+ and CD8+ T cells pretreated with inhibitor 24 hours, co-cultured with nTreg 4:1, 3 days
[13] = pretreated with inhibitor 24 hours, Treg co-culture
[14] = anti-CD3 coated plates, 3 days, no Treg cells
[15] = CD8+ T cells pretreated with inhibitor 24 hours, nTreg co-culture 3 days

Compound: O=CC[C@@H](O)[C@H](O)[C@H](O)CO [2-DG]
- suppressive activity of senescent T cells on proliferation of effector T cells [1]: inhibited their suppressive activity
- secretion of pro-inflammatory cytokines by senescent T cells ([2]; senescent CD8+ T cells, 3-BrPA (30 μM) or 2-DG (2 mM), additional 1 day): significantly decreased

Compound: O=C(O)C(=O)CBr [3-BrPA]
- suppressive activity of senescent T cells on proliferation of effector T cells [1]: inhibited their suppressive activity
- secretion of pro-inflammatory cytokines by senescent T cells [2]: significantly decreased

Compound: CCCCC/C=C\C/C=C\C/C=C\C/C=C\CCCC(=O)C(F)(F)F [ATK]
- anti-tumor immunity and tumor immunotherapy, ATK [3]: enhances anti-tumor immunity and tumor immunotherapy in vivo
- senescent (SA-β-gal+) T cell populations induced by Treg cells [4, 11]: can prevent T cell senescence

Compound: CCCCCCCCCCCCC/C=C/[C@@H](O)[C@H](CO)NC(C)=O [Cer, C2-Ceramide]
- senescence induction in T cells co-cultured with nTreg cells, lipid supplement [4]: markedly prevented senescence induction

Compound: O=c1cc(-c2cccc3c2Sc2ccccc2S3)oc(N2CCOCC2)c1 [KU55933]
- LD formation (Oil red O+ T cell populations) induced by Treg cells [5, 12]: dramatically reduced
- senescent (SA-β-gal+) T cell populations induced by Treg cells [4, 11]: dramatically reduced
- cPLA2α expression in Treg-induced senescent T cells [6, 13]: significantly decreased both mRNA and protein expression of cPLA2α
- phosphorylation of p38, ERK, STAT1 and STAT3 in Treg-treated CD4+ T cells [7]: prevented phosphorylation of MAPKs and STAT1/STAT3
- CE and FFA in senescent T cells ([8]; CD8+ T cells pretreated with KU55933 (10 μM) 1 day, nTreg co-culture 3 days): markedly prevented Treg-induced up-regulation of CE and FFA

Compound: CSC[C@H]1O[C@@H](n2cnc3c(N)ncnc32)[C@H](O)[C@@H]1O [MTA]
- LD formation (Oil red O+ T cell populations) induced by Treg cells [5, 12]: significantly decreased Oil red O+ T cell populations
- LD formation (Oil-red O) in naïve T cells, substance alone [9, 14]: did not promote cell senescence and LD formation
- senescent (SA-β-gal+) T cell populations induced by Treg cells [4, 11]: prevented senescence induction
- cPLA2α expression in Treg-induced senescent T cells [6, 13]: dramatically suppressed the enhanced cPLA2α expression
- CE and PC in senescent T cells [8, 15]: significantly prevented the Treg-induced up-regulation of CE and down-regulation of PC
- cell senescence (SA-β-gal) in naïve T cells, substance alone [10, 14]: did not promote cell senescence

Compound: Cc1ccc(S(=O)(=O)OCC(=O)Nc2ccc(C(=O)O)c(O)c2)cc1 [S3I-201]
- LD formation (Oil red O+ T cell populations) induced by Treg cells [5, 12]: significantly decreased Oil red O+ T cell populations
- LD formation (Oil-red O) in naïve T cells, substance alone [9, 14]: did not promote cell senescence and LD formation
- senescent (SA-β-gal+) T cell populations induced by Treg cells [4, 11]: prevented senescence induction
- cPLA2α expression in Treg-induced senescent T cells [6, 13]: dramatically suppressed the enhanced cPLA2α expression
- CE and PC in senescent T cells [8, 15]: significantly prevented the Treg-induced up-regulation of CE and down-regulation of PC
- cell senescence (SA-β-gal) in naïve T cells, substance alone [10, 14]: did not promote cell senescence

Compound: C[S+]([O-])c1ccc(-c2nc(-c3ccncc3)c(-c3ccc(F)cc3)[nH]2)cc1 (stereo not shown) [SB203580]
- LD formation (Oil red O+ T cell populations) induced by Treg cells [5]: significantly decreased Oil red O+ T cell populations
- LD formation (Oil-red O) in naïve T cells, substance alone [9]: did not promote cell senescence and LD formation
- senescent (SA-β-gal+) T cell populations induced by Treg cells [4]: prevented senescence induction
- cPLA2α expression in Treg-induced senescent T cells [6]: dramatically suppressed the enhanced cPLA2α expression
- CE and PC in senescent T cells [8]: significantly prevented the Treg-induced up-regulation of CE and down-regulation of PC
- cell senescence (SA-β-gal) in naïve T cells, substance alone [10]: did not promote cell senescence

Compound: N#CC(=C(/N)Sc1ccccc1N)/C(C#N)=C(\N)Sc1ccccc1N [U0126]
- LD formation (Oil red O+ T cell populations) induced by Treg cells [5]: significantly decreased Oil red O+ T cell populations
- LD formation (Oil-red O) in naïve T cells, substance alone [9]: did not promote cell senescence and LD formation
- senescent (SA-β-gal+) T cell populations induced by Treg cells [4]: prevented senescence induction
- cPLA2α expression in Treg-induced senescent T cells [6]: dramatically suppressed the enhanced cPLA2α expression
- CE and PC in senescent T cells [8]: significantly prevented the Treg-induced up-regulation of CE and down-regulation of PC
- cell senescence (SA-β-gal) in naïve T cells, substance alone [10]: did not promote cell senescence

Compound: CC(C)c1cc(C(C)C)c(CC(=O)NS(=O)(=O)Oc2c(C(C)C)cccc2C(C)C)c(C(C)C)c1 [avasimible]
- LD formation (Oil red O+ T cell populations) induced by Treg cells [5, 12]: dramatically reduced
- LD formation (Oil-red O) in naïve T cells, substance alone [9, 14]: does not induce cell senescence and LD formation
- senescent (SA-β-gal+) T cell populations induced by Treg cells [4, 11]: dramatically reduced
- total and sub-fractions of CE in senescent T cells ([8]; CD8+ T cells pretreated 24 hours, nTreg co-culture 3 days): did not significantly down-regulate total and sub-fractions of CE
- cell senescence (SA-β-gal) in naïve T cells, substance alone [10, 14]: does not induce cell senescence

Compound: CCCCCCCCCCC[C@@H](C[C@@H]1OC(=O)[C@H]1CCCCCC)OC(=O)[C@H](CC(C)C)NC=O [orlistat]
- LD formation (Oil-red O) in naïve T cells, substance alone [9, 14]: promoted LD formation
- cell senescence (SA-β-gal) in naïve T cells, substance alone [10, 14]: dramatically increased cell senescence

Compound: Lysophosphatidylcholine [LPC]
- senescence induction in T cells co-cultured with nTreg cells, lipid supplement [4]: markedly prevented senescence induction

Compound: Phosphatidylethanolamine [PE]
- senescence induction in T cells co-cultured with nTreg cells, lipid supplement [4]: markedly prevented senescence induction

Compound: Phosphatidylserine [PS]
- senescence induction in T cells co-cultured with nTreg cells, lipid supplement [4]: markedly prevented senescence induction
